Source: paper PMC9889419 (Pharmacological Reports, 2022)
Where a name gives a salt, the structure may show the parent alone. Read-outs that look alike come from different tables or passages of the source.

Key:
[1] = test system: rats; experiment: Whole body plethysmography; type: in vivo; settings: 6, 10 and 20 mg/kg ip, 4-h test period
Protocol: Whole body plethysmography. The method, which detects the effects of a test substance on airway function, follows that described by Chong et al. and by Hamelmann et al.. Rats were placed individually in a single chamber plethysmograph (Buxco) in which they can move and drink freely. After a habituation period of 150 min, the following parameters were recorded: inspiratory time, expiratory time, peak inspiratory flow, peak expiratory flow, tidal volume, respiratory rate, relaxation time, pause, enhanced pause. All data generated were acquired using specialized EMKA Technologies software (lOX version 1.7.0; ANALYST version 1.49), connected to Buxco plethysmographic equipment. Recordings were taken for 30 min before and for 4 h after administration of the test substance. […] Each time point represented the mean value of a 2-min block (recorded 1 min before and 1 min after each time point). In cases where the data can be considered invalid, for example if recorded during a period of sniffing thereby causing a brief period of increased respiratory frequency, the retained values were those as close as possible to the theoretical time point. Results were expressed as absolute values and as percent changes from initial mean values (T0). […] Each test substance was evaluated at 3 doses (6 mg/kg, 10 mg/kg, and 20 mg/kg), administered ip, and compared with a vehicle control group. […]

[2] = Pharmacokinetics in plasma; type: in vivo, rats; settings: for bioavailability / AUC(0-t) / C0 / MRT / clearance / Vd / k el / CL/F / Cmax / Tmax / Vd/F: male, Wistar, rat, plasma; for bioavailability: po; for bioavailability / AUC(0-t) / C0 / MRT / clearance / Vd / k el / CL/F / Cmax / Tmax / Vd/F / t0.5λz: rats; for Vd: read-out: Vz; for k el: read-out: λz (converted); for Vd/F: read-out: Vz/F
Protocol: Pharmacokinetic study design. Male Wistar rats (250–300 g) bred in-house from progenitors obtained from Charles River Laboratories (Sulzfed, Germany) were used in this study. Animals were fasted overnight prior to drug administration but had free access to water. […] Moreover, this compound dissolved in the same solvent was administered orally (po) by oral gavage at two doses (50 and 100 mg/kg) (n = 4). Blood samples were collected from the catheter at various time points up to 5 h. […] The animals were anaesthetized (50/7.5 mg/kg ketamine/xylazine, ip) and sacrificed by decapitation at 5, 15, 30, 60, 120, 180, and 300 min after compound administration (n = 4 per time point). Blood was collected into heparinized tubes and organs such as liver, brain, lungs, kidneys, and heart were harvested. The blood samples were centrifuged at 4000 rpm for 10 min (EBA 12R, Hettich, Germany). Plasma and organs were stored at − 80 °C until analysis.
Determination of KM-408 in plasma and tissue homogenates. Before analysis, tissue samples were homogenized in phosphate-buffered saline, pH 7.4 (1:4, w/v) with a tissue homogenizer (TH220; Omni International, Inc., Warrenton, VA, USA). Plasma (100 μL) or homogenate samples (500 μL) were mixed with an internal standard (IS) solution (R-( +)-propranolol, 4 μg/mL in methanol). Then, 20 μL of sodium carbonate (0.125 M) was added to each tube and the samples were extracted with 3 mL of diethyl ether by vortexing for 1 min. After centrifugation (3000 rpm, 15 min), the organic phase was transferred to a new tube and evaporated to dryness under a gentle stream nitrogen at 37 °C in a water bath. The dry residue was reconstituted in 100 μL of acetonitrile. Subsequently, 50 μL of 0.2 M borate buffer (pH = 7.0) and 50 μL of 6 mM FMOC-Cl solution in acetonitrile were added. After vortex-mixing for 1 min, the samples were kept for 30 min at 40 °C in a dry heat sterilizer (model MOV-112S, Sanyo, Japan). The reaction was stopped by the addition of 0.1 M solution of glycine in water (30 μL) and vortexing for 1 min. The reaction mixture was transferred directly into the autosampler vials. The chromatographic system (Merck-HITACHI, Japan) consisted of an L-2485 spectrofluorimetric detector operating at the excitation and emission wavelengths of 267 and 316 nm, respectively, an L-2130 pump, an L-2350 column oven, and an L-2200 autosampler. The EZChrom Elite Client/Server version 3.2 (Agilent Technologies Inc.) was used for data acquisition and processing. […] The column temperature was maintained at 50 °C. The mobile phase consisted of a mixture of acetonitrile and water (67:33, v/v), and pumped at a flow rate of 1 mL/min.
Pharmacokinetic data analysis. Plasma and tissue concentration versus time profiles were analyzed by the non-compartmental approach in Phoenix WinNonlin v. 6.3 software (Pharsight Corporation, Mountain View, CA, USA). The peak concentration (Cmax) and the time to reach Cmax (tmax) were obtained directly from individual concentration–time profiles. The initial concentration (C0) after an iv dosing was obtained by extrapolation to zero time. The linear trapezoidal rule was applied to calculate the areas under the concentration–time curve (AUC) from the time of dosing to the last measured data point (AUC0-t) or infinity (AUC0-∞). The terminal slope (λz) was estimated by linear regression and the terminal half-life (t0.5λz) was calculated as ln2/λz. The volume of distribution based on the terminal phase (Vz) was calculated as: Dose/(λz ∙ AUC0-∞), whereas clearance (CL) was obtained from the following equation: Dose/AUC0-∞. The mean residence time (MRT) was defined as: AUMC0-∞/AUC0-∞, where AUMC is the area under the first moment curve. The absolute bioavailability (Fa) was calculated according to the equation: (AUCpo./Dosepo)/(AUCiv/Doseiv).

CCC(CO)NCCOc1c(C)cccc1Cl (stereo not drawn) [KM-408, R,S-2-((2-(2-chloro-6-methylphenoxy)ethyl)amino)butan-1-ol hydrochloride]
effects on respiratory parameters [1]: No significant effects
plasma concentration ([2]; 5 mg/kg iv, immediately after administration): 1.48*10^–5 M
bioavailability ([2]; 50 mg/kg, po 50 mg/kg, read-out: F): 3.9%
bioavailability ([2]; 100 mg/kg, po 100 mg/kg, read-out: F): 3.6%
bioavailability ([2]; 100 mg/kg, po 50 and 100 mg/kg, read-out: absolute bioavailability): 3.6 to 3.9%
AUC(0-t) ([2]; iv 1 mg/kg): 0.207 µg·h/mL
C0 ([2]; iv 1 mg/kg): 0.371 µg/mL
MRT ([2]; iv 1 mg/kg): 51.7 min
clearance ([2]; iv 1 mg/kg): 4.8 L/h/kg
Vd ([2]; iv 1 mg/kg): 2.53 L/kg
k el ([2]; iv 1 mg/kg): 0.000533 s⁻¹
AUC(0-t) ([2]; iv 5 mg/kg): 1.21 µg·h/mL
C0 ([2]; iv 5 mg/kg): 4.36 µg/mL
MRT ([2]; iv 5 mg/kg): 43.5 min
clearance ([2]; iv 5 mg/kg): 4.2 L/h/kg
Vd ([2]; iv 5 mg/kg): 3.77 L/kg
k el ([2]; iv 5 mg/kg): 0.0003 s⁻¹
AUC(0-t) ([2]; iv 10 mg/kg): 2.72 µg·h/mL
C0 ([2]; iv 10 mg/kg): 5.33 µg/mL
MRT ([2]; iv 10 mg/kg): 42.3 min
clearance ([2]; iv 10 mg/kg): 3.6 L/h/kg
Vd ([2]; iv 10 mg/kg): 2.3 L/kg
k el ([2]; iv 10 mg/kg): 0.00045 s⁻¹
AUC(0-t) ([2]; po 50 mg/kg): 0.43 µg·h/mL
CL/F ([2]; po 50 mg/kg): 117 L/h/kg
Cmax ([2]; po 50 mg/kg): 0.313 µg/mL
MRT ([2]; po 50 mg/kg): 79.1 min
Tmax ([2]; po 50 mg/kg): 30 min
Vd/F ([2]; po 50 mg/kg): 80.3 L/kg
k el ([2]; po 50 mg/kg): 0.000383 s⁻¹
AUC(0-t) ([2]; po 100 mg/kg): 0.807 µg·h/mL
CL/F ([2]; po 100 mg/kg): 124 L/h/kg
Cmax ([2]; po 100 mg/kg): 0.573 µg/mL
MRT ([2]; po 100 mg/kg): 83 min
Tmax ([2]; po 100 mg/kg): 30 min
Vd/F ([2]; po 100 mg/kg): 104 L/kg
k el ([2]; po 100 mg/kg): 0.000333 s⁻¹
t0.5λz ([2]; iv 1 mg/kg): 21.80 min
t0.5λz ([2]; iv 5 mg/kg): 37.94 min
t0.5λz ([2]; iv 10 mg/kg): 26.02 min
t0.5λz ([2]; po 50 mg/kg): 30.59 min
t0.5λz ([2]; po 100 mg/kg): 34.98 min
